Measurements from patent publication US10280170B2, “Substituted 4,5,6,7-tetrahydro-pyrazolo[1,5-a]pyrazine derivatives and 5,6,7,8-tetrahydro-4H-pyrazolo[1,5-a][1,4]diazepine derivatives as Ros1 inhibitors” (Janssen Pharmaceutica NV, priority 2014, dated 2019).
Like-named read-outs stand apart in the source and are kept apart here.

Key:
[1] = test system: Ba/F3 cells containing Ros1 wild-type protein + IL-3; experiment: Ba/F3-Ros1 cell proliferation counter-screen, wild-type protein in the presence of 10 ng/ml murine IL-3; format: cell-based; details: Mus musculus, BaF3, 24 h, read-out: BaF3-ROS1 + IL3 pIC50 (converted)
Procedure: (§1) This assay was carried out with Ba/F3 cells containing three different versions of Ros1: the wild-type protein, protein with a mutation at the gatekeeper residue (L2026M), and protein with a mutation identified in a tumor from a patient that became resistant to crizotinib (Xalkori®) treatment (G2032R). Compounds were solubilized in 100% DMSO (dimethyl sulfoxide) and sprayed into polystyrene, tissue culture treated 384-well plates. A 50 μl volume of cell culture medium (phenol red free RPMI-1640, 10% FBS (fetal bovine serum), 2 mM L-Glutamine) containing 20000 Ba/F3-Ros1 cells was added to each well and the plates were placed in an incubator at 37° C. and 5% CO2. After 24 hours, 10 μl of Alamar Blue solution (0.5 mM K3Fe(CN)6, 0.5 mM K4Fe(CN)6, 0.15 mM Resazurin and 100 mM Phosphate Buffer) was added to the wells, incubated for 4 hours at 37° C. and 5% CO2 before RFU's (Relative Fluorescence Units) (ex. 540 nm., em. 590 nm.) were measured in a fluorescence plate reader.
As a counter-screen the same experiment was performed for the wild-type protein in the presence of 10 ng/ml murine IL-3.

[2] = biological target: Ba/F3 cells containing Ros1 with a mutation at the gatekeeper residue (L2026M) (Homo sapiens, UniProt P08922, L2026M, cells depend on it, form not given); experiment: Ba/F3-Ros1 cell proliferation assay, L2026M gatekeeper mutant; format: cell-based, murine; details: without IL-3
Chain of Ba/F3 cells containing Ros1 with a mutation at the gatekeeper residue (L2026M) (P08922 whole entry L2026M, form open): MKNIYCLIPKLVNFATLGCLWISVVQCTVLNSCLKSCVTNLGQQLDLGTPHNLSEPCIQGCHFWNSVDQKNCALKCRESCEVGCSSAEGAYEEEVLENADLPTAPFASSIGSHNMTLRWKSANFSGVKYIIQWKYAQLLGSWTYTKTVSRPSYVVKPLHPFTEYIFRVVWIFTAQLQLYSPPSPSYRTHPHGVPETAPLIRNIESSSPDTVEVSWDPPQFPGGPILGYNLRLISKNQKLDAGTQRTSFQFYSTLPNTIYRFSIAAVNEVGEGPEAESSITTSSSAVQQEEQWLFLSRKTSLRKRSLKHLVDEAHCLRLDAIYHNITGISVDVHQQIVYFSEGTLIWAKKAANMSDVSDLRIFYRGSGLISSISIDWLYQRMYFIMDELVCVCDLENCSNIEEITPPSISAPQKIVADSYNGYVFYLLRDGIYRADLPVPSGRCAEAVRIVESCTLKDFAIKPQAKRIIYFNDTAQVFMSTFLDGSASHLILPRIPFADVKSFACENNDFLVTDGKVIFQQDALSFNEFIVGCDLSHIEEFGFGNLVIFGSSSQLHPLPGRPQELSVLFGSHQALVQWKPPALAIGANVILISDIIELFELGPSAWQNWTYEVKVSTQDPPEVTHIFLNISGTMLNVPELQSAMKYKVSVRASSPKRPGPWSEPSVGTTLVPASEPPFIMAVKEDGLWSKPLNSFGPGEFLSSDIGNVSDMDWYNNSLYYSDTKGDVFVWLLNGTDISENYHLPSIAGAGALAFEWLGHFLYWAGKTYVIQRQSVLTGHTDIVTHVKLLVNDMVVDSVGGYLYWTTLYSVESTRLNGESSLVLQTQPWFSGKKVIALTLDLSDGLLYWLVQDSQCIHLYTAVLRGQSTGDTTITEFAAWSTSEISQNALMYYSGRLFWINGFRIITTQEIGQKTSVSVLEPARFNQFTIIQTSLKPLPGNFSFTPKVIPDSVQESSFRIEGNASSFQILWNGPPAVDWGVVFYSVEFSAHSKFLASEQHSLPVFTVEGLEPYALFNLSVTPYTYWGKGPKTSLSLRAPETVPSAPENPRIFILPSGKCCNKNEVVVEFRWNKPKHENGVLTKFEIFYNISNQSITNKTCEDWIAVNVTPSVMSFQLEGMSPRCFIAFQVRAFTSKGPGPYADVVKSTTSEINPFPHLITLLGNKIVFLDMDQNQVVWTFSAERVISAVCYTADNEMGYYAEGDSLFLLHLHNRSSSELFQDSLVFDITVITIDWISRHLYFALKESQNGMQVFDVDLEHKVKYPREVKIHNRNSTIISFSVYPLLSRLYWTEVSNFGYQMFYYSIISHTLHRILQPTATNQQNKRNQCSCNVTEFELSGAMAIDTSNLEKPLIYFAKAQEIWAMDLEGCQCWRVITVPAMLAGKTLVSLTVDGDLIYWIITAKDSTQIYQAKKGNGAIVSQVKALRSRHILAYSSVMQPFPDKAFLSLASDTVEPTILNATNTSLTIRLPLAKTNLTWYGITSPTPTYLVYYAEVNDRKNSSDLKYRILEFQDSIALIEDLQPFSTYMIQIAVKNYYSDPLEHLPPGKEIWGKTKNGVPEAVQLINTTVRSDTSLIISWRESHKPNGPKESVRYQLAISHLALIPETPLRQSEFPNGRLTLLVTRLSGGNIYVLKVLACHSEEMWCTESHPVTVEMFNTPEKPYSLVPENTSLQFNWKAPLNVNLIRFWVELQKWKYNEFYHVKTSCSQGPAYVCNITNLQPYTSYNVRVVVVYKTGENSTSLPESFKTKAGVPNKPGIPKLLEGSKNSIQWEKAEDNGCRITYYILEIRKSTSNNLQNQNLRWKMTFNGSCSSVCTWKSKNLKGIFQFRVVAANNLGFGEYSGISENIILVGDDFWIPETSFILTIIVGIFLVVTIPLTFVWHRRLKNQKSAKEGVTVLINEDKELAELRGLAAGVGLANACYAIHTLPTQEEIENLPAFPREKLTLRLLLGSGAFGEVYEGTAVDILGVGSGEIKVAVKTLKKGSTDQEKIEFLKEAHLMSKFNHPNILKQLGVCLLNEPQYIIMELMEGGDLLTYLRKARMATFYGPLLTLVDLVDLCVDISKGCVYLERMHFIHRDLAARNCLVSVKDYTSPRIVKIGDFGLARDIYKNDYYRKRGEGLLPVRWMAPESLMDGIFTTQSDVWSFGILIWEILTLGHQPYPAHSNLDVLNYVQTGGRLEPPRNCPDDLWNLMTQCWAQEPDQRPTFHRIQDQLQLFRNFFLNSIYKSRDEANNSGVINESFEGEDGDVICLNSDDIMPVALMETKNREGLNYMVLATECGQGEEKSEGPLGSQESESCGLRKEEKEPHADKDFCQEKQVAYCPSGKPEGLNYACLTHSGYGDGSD
Procedure: (§2) Ba/F3-Ros1 Cell Proliferation Assay
as §1

Ros1 enzyme = biological target: T1, Ros1 enzyme (Homo sapiens, UniProt P08922); experiment: Ros1 enzymatic assay; format: biochemical; details: Ros1 enzymatic assay; read-out: ROS1 pIC50 (converted)
T1 construct: 0.5 μg/ml Ros1 enzyme
T1 sequence (P08922 28-2347): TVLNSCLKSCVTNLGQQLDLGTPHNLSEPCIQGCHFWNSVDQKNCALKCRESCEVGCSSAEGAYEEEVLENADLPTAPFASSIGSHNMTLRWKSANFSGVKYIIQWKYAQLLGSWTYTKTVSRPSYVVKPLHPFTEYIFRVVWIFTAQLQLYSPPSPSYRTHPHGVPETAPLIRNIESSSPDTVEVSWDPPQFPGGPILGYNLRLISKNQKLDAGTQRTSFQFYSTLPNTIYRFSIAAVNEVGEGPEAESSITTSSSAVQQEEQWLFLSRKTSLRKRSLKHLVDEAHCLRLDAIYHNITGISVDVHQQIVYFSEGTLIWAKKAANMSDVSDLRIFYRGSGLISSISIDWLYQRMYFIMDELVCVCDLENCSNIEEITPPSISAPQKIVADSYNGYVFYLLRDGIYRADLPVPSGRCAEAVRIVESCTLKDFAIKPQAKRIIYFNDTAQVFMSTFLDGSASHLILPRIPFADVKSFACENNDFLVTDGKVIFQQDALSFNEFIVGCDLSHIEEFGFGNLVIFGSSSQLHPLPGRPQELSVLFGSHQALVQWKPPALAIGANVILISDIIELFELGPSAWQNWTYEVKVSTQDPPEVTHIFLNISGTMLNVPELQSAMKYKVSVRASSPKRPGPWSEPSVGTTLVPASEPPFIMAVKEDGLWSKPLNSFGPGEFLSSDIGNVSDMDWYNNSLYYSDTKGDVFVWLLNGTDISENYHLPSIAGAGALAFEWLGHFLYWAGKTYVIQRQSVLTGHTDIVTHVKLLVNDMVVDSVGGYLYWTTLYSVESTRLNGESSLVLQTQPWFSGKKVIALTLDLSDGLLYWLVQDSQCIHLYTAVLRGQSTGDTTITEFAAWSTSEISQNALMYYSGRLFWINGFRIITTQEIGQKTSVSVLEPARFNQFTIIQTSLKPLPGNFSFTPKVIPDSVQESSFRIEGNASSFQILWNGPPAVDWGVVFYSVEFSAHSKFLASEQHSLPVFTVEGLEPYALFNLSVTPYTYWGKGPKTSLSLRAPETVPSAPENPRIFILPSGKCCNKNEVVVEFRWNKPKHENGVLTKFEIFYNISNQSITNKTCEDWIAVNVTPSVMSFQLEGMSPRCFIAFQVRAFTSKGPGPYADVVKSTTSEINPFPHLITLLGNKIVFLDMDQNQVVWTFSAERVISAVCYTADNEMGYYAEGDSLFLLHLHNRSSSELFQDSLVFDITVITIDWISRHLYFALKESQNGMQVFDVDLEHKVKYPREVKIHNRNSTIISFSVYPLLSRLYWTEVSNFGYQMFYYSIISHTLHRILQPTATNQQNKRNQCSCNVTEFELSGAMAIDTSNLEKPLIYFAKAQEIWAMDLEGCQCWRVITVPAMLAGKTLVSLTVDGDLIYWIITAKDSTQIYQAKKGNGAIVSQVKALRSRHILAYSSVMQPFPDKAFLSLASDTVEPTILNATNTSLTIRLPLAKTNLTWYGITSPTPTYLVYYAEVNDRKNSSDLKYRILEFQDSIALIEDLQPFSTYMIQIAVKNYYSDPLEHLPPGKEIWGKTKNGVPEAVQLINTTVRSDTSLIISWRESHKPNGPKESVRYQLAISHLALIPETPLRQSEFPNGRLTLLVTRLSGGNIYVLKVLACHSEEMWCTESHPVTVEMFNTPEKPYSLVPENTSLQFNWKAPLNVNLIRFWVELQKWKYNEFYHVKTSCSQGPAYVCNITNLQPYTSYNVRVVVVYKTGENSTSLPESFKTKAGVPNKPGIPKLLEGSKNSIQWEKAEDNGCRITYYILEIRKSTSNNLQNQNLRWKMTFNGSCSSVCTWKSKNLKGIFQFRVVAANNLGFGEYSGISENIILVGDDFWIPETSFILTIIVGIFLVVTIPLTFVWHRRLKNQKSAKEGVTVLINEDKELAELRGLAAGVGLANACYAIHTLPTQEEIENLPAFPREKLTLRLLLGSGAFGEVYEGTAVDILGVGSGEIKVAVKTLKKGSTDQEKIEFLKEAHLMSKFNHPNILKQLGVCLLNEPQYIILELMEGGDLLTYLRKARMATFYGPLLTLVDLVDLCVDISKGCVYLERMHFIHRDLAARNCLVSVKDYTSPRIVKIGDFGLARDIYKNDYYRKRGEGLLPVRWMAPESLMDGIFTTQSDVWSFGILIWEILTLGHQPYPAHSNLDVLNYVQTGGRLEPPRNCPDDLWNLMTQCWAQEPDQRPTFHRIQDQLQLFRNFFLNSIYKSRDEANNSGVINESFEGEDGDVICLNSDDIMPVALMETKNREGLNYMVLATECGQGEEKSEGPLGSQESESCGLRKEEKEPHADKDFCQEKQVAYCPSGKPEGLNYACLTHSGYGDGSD
Procedure: Compounds were spotted onto white 384-well Proxiplate plus plates (Perkin Elmer) to which 5 μl of enzyme mix (0.5 μg/ml Ros1 enzyme, 50 mM Tris-HCl pH7.5, 1 mM EGTA, 10 mM MgCl2, 0.01% Tween-20) and 5 μl of substrate mix (6 μg/ml IRS-Tide [American Peptide Company], 20 μM ATP, 13.33 μCi/ml ATP (adenosine 5′-triphosphate) P^33, 50 mM Tris-HCl pH7.5, 1 mM EGTA (ethylene glycol-bis(2-aminoethylether)-N,N,N′,N′-tetraacetic acid), 10 mM MgCl2, 0.01% Tween-20) were added. After incubation for 120 minutes at room temperature, 10 μl of stop reaction buffer (5 mM EDTA, 50 μM ATP, 0.1% BSA (bovine serum albumin), 0.1% Triton X-100, 50 mM Tris-HCl pH7.5, 1 mM EGTA, 10 mM MgCl2, 0.01% Tween-20) containing 2 mg/ml streptavidin coupled polystyrene imaging beads (Amersham Biosciences) was added and incubated for 15 minutes at room temperature. Plates were centrifuged for 3 minutes at 1500 rpm and signals detected in a LEADseeker imaging system (GE).

[3] = biological target: T2, Ba/F3 cells containing Ros1 wild-type protein (Homo sapiens, UniProt P08922, cells depend on it, form not given); experiment: Ba/F3-Ros1 cell proliferation assay, wild-type Ros1; format: cell-based, murine; details: without IL-3
T2 construct: The background only speaks of 'a number of different unrelated proteins' and names SLC34A2-ROS1 for HCC78 cells
T2 sequence (P08922 whole entry, stated change not applied): as the sequence (P08922 whole entry L2026M, form open) above, with M2026L counted along it
Procedure: as §2, §1

[4] = test system: HCC78 non-small cell lung cancer cells; experiment: HCC78 cell proliferation assay; format: cell-based; details: for EC50: Homo sapiens, HCC78, 96 h, read-out: HCC-78 PROL pEC50 (converted)
Procedure: HCC78 Cell Proliferation Assay
Approximately 1000 HCC78 non-small cell lung cancer cells in 180 μl of cell culture medium (RPMI-1640, 10% FBS, 2 mM L-Glutamine, 10 mM Hepes, 1 mM sodium pyruvate, 4.5 g/L glucose, 1.5 g/L sodium bicarbonate, 25 μg/ml Gentamycin) were seeded in each well of a 96-well polystyrene, tissue-culture treated plate and incubated at 37° C. and 5% CO2. After 24 hours, compounds were diluted in cell culture medium from which 20 μl was added to the wells containing cells and incubated for 4 days at 37° C. and 5% CO2. A 5 mg/ml solution of the tetrazolium dye MTT was prepared in PBS (phosphate-buffered saline) and 25 μl was added to each well. After 2 hours the medium was removed and replaced by 125 μL of 4/1 DMSO/glycine buffer (0.1M glycine, 0.1M NaCl, pH 10.5) before absorbance was determined at 538 nm.

[5] = counter-screen, wild-type, 10 ng/ml murine IL-3

| SMILES | CC50 [1, 5] | Ba/F3 Ros1 L2026M (-IL-3) pIC50 [2] | IC50 (Ros1 enzyme) | BaF3-ROS1-IL3 pIC50 [3] | EC50 ([4]; HCC78 cells, 4 days, MTT) | CC50 [1] | EC50 [4] | HCC-78 PROL pEC50 ([4]; HCC78 cells, 4 days, MTT) | melting point |
| --- | --- | --- | --- | --- | --- | --- | --- | --- | --- |
| CC(C)c1ccc(COc2ccc(-c3c(-c4ccncc4)nn4c3C(=O)N(CCCN)CC4)cc2)cc1 [Compound 58] | 6310 nM | 7.0 | 20 nM | 7.3 | 1000 nM | – | – | – | – |
| O=C1c2c(-c3ccc(OCc4ccc(C5CC5)nc4)cc3F)c(-c3ccncc3)nn2CCN1CCO [Compound 207] | – | 6.5 | 20 nM | 7.1 | – | > 10000 nM | 501 nM | – | – |
| CC(C)c1ccc(COc2ccc(-c3c(-c4ccncc4)nn4c3C(=O)N(CCN)CC4)cc2)cc1 [Compound 59] | 5010 nM | ~6.1 | 63.1 nM | 6.4 | 501 nM | – | – | – | – |
| C[Si](C)(C)c1ccc(COc2ccc(-c3c(-c4ccncc4)nn4c3C(=O)NCC4)cc2)cc1 [Compound 232] | > 10000 nM | 6.5 | 2000 nM | 6.7 | 2510 nM | – | – | – | – |
| Cc1cc(-c2c(-c3ccncc3)nn3c2C(=O)N(CCO)CC3)ccc1OCc1ccc(C(C)C)cc1 [Compound 31] | – | 5.9 | 1580 nM | 6.3 | – | > 10000 nM | 6310 nM | – | – |
| CNCCN1CCn2nc(-c3ccncc3)c(-c3ccc(OCc4ccc(C(C)C)cc4)cc3)c2C1=O [Compound 60] | 3980 nM | 6.2 | 63.1 nM | 6.6 | 631 nM | – | – | – | – |
| CC(C)c1ccc(CC(=O)N2CC=C(c3c(-c4ccncc4)nn4c3C(=O)NCC4)CC2)cc1 [Compound 77] | – | 6.3 | 316 nM | 6.3 | – | > 10000 nM | 2000 nM | – | – |
| CC(C)c1ccc(COc2ccc(-c3c(-c4ccncc4)nn4c3C(=O)N(C)C(CO)C4)cc2)cc1 (stereo not shown) [Compound 196] | – | 6.4 | 158 nM | 6.9 | – | > 10000 nM | 631 nM | – | – |
| CC(C)c1ccc(COc2ccc(-c3c(-c4ccncc4)nn4c3C(=O)N(CCN(C)C)CC4)cc2)cc1 [Compound 61] | – | 5.9 | – | 6.3 | – | > 10000 nM | 631 nM | – | – |
| CC(C)c1ccc(C(C)Oc2ccc(-c3c(-c4ccncc4)nn4c3C(=O)N(CCO)CC4)cc2)cc1 (stereo not shown) [Compound 145] | – | 5.1 | 3160 nM | 5.8 | – | – | – | <5.5 | – |
| CNC(=O)CN1CCn2nc(-c3ccncn3)c(-c3ccc(OCc4ccc(C(C)C)cc4)cc3)c2C1=O [Compound 164] | > 10000 nM | 6.7 | 158 nM | 7.0 | 794 nM | – | – | – | – |
| CNC(=O)C(Oc1ccc(-c2c(-c3ccncc3)nn3c2C(=O)NCC3)cc1)c1ccc(C(C)C)cc1 (stereo not shown) [Compound 217] | > 10000 nM | 6.0 | 398 nM | 6.3 | 3160 nM | – | – | – | – |
| Fc1cc(OCc2ccc(C3CC3)cc2)ccc1-c1c(-c2ccncc2)nn2c1CNCC2 [Compound 184] | > 10000 nM | 6.6 | 100 nM | 7.3 | 251 nM | – | – | – | – |
| CC(C)c1ccc(COc2ccc(-c3c(-c4ccncc4)nn4c3CN(CCO)CC4)c(F)c2)cc1 [Compound 187] | – | 6.4 | 79.4 nM | 7.2 | – | > 10000 nM | 100 nM | – | – |
| [2H]C([2H])(O)C([2H])([2H])N1CCn2nc(-c3ccncc3)c(-c3ccc(OCc4ccc(C(C)C)cc4)cc3)c2C1=O [Compound 67] | – | 7.1 | 25.1 nM | 7.9 | – | > 10000 nM | – | – | 179 °C |
| CC(C)c1ccc(COc2ccc(-c3c(-c4ccncc4)nn4c3C(=O)N(C)CC4)cn2)cc1 [Compound 211] | > 10000 nM | 7.3 | 31.6 nM | 7.3 | – | – | – | – | 57 °C |
| CC(C)c1ccc(COc2ccc(-c3c(-c4ccncc4)nn4c3C(=O)N(CCO)CC4)cc2)c(F)c1F [Compound 100] | – | 6.3 | 200 nM | 6.9 | – | > 10000 nM | – | – | 172 °C |
| CC(C)c1ccc(C(C)Oc2ccc(-c3c(-c4ccncc4)nn4c3C(=O)NCC4)cc2)cc1 (stereo not shown) [Compound 143] | – | 6.0 | 1000 nM | 6.4 | – | 5010 nM | – | – | 217 °C |
| CC(C)c1ccc(COc2ccc(-c3c(-c4ccncc4)nn4c3C(=O)N(C(=O)OC(C)(C)C)CC4)cc2)cc1 [Compound 70] | > 10000 nM | 6.1 | 3160 nM | 6.4 | – | – | – | – | 147 °C |
| CC(C)c1ccc(COc2ccc(-c3c(-c4ccncc4)nn4c3C(=O)N(CCS(C)(=O)=O)CC4)cn2)cc1 [Compound 213] | > 10000 nM | 6.4 | 100 nM | 7.0 | – | – | – | – | 200 °C |
| CC(C)c1ccc(C2Oc3ccc(-c4c(-c5ccncc5)nn5c4C(=O)NCC5)cc3NC2=O)cc1 (stereo not shown) [Compound 231] | > 10000 nM | 5.7 | 794 nM | 6.4 | – | – | – | – | 291 °C |
